{"source": "patent EP3207939A2", "about": "“USE OF A PROTEIN/PEPTIDE COMPLEX FOR TREATING AND PREVENTING ATHEROSCLEROSIS, METHOD FOR TREATING AND PREVENTING ATHEROSCLEROSIS (VARIANTS)” (Diamondzlite Limited, priority 2014, dated 2016)", "key": {"[1]": {"conditions": "cited from earlier work"}, "[2]": {"test_system": "atherosclerotic cells of the intima of human's aorta", "experiment": "Intracellular cholesterol and lipid content in cultured atherosclerotic cells, in vitro model"}, "[3]": {"conditions": "guinea pigs, 12 weeks, cited from earlier work"}, "[4]": {"conditions": "rabbits, 28 days, food with 1% cholesterol, 0.6 g of beta-carotene per 1 kg of food; cited from earlier work"}, "[5]": {"conditions": "hypersensitive rats, 125-500 mg per 1 kg of food with cholesterol-rich food, 44 days; cited from earlier work"}, "[6]": {"conditions": "smoking people, 20 mg/day, 14 weeks; cited from earlier work"}, "[7]": {"test_system": "cultured atherosclerotic cells", "experiment": "Inclusion of [3H] thymidine (proliferative activity) in cultured atherosclerotic cells", "assay_type": "cell-based, human", "method": "For research on the impact of the original PPC and PPPC with the conditional name \"Cellex\" (hereinafter - Cellex, as a modifier and activator of biological reactions) on the level of reduction of the atherogenic potential of blood serum of patients having atherosclerosis according to the known method, a primary culture of subendothelial cells of the human's aorta was obtained from various sections of the intima of the thoracic aorta of men and women aged 40-65 years within 1.5-3 hours after sudden death, which differed by the degree of atherosclerotic disease, then it was treated by collagenase, and the cells were cultured."}, "[8]": {"test_system": "cells extracted from normal or damaged sections of the intima of human's aorta", "experiment": "Determination of the synthesis of collagen ([3H]-proline inclusion)", "assay_type": "cell-based", "conditions": "Verapamil 5 x 10^-5 M; control 2500 ± 102 dpm/103", "method": "Cells extracted from normal or damaged sections of the intima of human's aorta were incubated for 24 hours in the presence of 5 µCi/ml [3H]-proline. Upon completion of incubation, inclusion of marked proline into the culture medium fraction treated by collagenase was determined by the method of Peterkofsky and Diegelmann. Table 1. Influence of lipostabil, lovastatin and cellex on the cholesterol content in atherosclerotic cells of the intima of human's aorta in vitro."}, "[9]": {"test_system": "primary culture of atherosclerotic cells", "experiment": "Ex vivo model: volunteers' blood serum added to primary culture of atherosclerotic cells, intracellular cholesterol", "assay_type": "cell-based, human", "method": "For the ex vivo model, blood was taken from volunteers immediately prior to Cellex intake and after the corresponding intervals after the intranasal intake (after 2, 4, and 6 hours for screening studies and assessment of the short-term effect, as well as after 4, 8, 12, and 24 hours for the assessment of duration of the effect).\nVolunteers took PPC - Cellex at once in the form of an intranasal spray in complex with polynucleotides in the form of sodium salts of DNA - PPPC, 400 µg of a 0.1% solution (per total protein and DNA) - 2 injections of 200 µg in each nasal duct in the morning, the drug for comparison was Verapamil in the dose of 400 mg; the control group received intranasally 50 mM of glycine-phosphate buffer solution with the same pH (7.8) and with the same regimen. Blood was taken prior to drug or control intake (time \"0\") and 1, 2, 4, and 8 hours after the intake. Samples were prepared from the bloodserum, and serum samples were added to the primary culture of atherosclerotic cells. […] Consequently, starting from the 1 st hour after single intake of the claimed drug and from the 2nd hour after Verapamil intake, blood serum acquires antiatherosclerotic properties manifested in the contribution to reverse cholesterol transport from atherosclerotic cells. Antiatherosclerotic properties of serum are preserved for at least 12 hours after Verapamil intake and up to 18 hours after intake of the claimed drug. Table 5. Comparative table of the antiatherogenic action of Cellex and Verapamil in the ex vivo model."}, "[10]": {"conditions": "rabbits, single peroral administration; cited from earlier work"}, "[11]": {"conditions": "long-term administration, daily dose of 3 g"}}, "note": "Like-named read-outs stand apart in the source and are kept apart here.", "data": [{"smiles": "N[C@H](Cc1cc(I)c(Oc2cc(I)c(O)c(I)c2)c(I)c1)C(=O)O", "note": "[D-thyroxine]", "values": [{"measurement": "reduction of the concentration of low-density lipoproteins", "setting": "[1]; daily dose of 4-8 mg", "value": 20, "unit": "%"}]}, {"smiles": "CC[C@H](C)C(=O)O[C@H]1C[C@@H](C)C=C2C=C[C@H](C)[C@H](CC[C@@H]3C[C@@H](O)CC(=O)O3)[C@H]21", "note": "[Lovastatin]", "values": [{"measurement": "Content of intracellular cholesterol", "setting": "[2]; concentration 10^-6 M, control 105 ± 11, average of three independent experiments", "value": "110 ± 10", "unit": "µg/mg"}]}, {"smiles": "O=C(O)c1cccnc1", "note": "[nicotinic acid]", "values": [{"measurement": "cholesterol level in blood serum lowered", "setting": "[1]; [11]", "value": 10, "unit": "%"}, {"measurement": "triglycerides in blood serum lowered", "setting": "[1]; [11]", "value": 20, "unit": "%"}]}, {"smiles": "CC1=C(/C=C/C(C)=C/C=C/C(C)=C/C=C/C=C(C)/C=C/C=C(C)/C=C/C2=C(C)CCCC2(C)C)C(C)(C)CCC1", "note": "[beta-carotene]", "values": [{"measurement": "sizes of sclerotic clots in aorta", "setting": "[3]; 50 mg of beta-carotene/100 g of food", "value": "significant reduction"}, {"measurement": "cholesterol and triglyceride levels in blood serum", "setting": "[3]; daily 0.2% cholesterol and 15-30 mg of beta-carotene", "value": "no verifiable differences"}, {"measurement": "LDL resistance to oxidation", "setting": "[4]", "value": "no impact of beta-carotene on LDL resistance to oxidation was detected"}, {"measurement": "elasticity of endothelial vessels", "setting": "[4]", "value": "elasticity of endothelial vessels was preserved"}, {"measurement": "cholesterol and triglyceride levels in blood serum", "setting": "[5]", "value": "dose-dependent reduction"}, {"measurement": "beta-carotene level in blood serum increased", "setting": "[6]", "value": 15, "unit": "times"}, {"measurement": "level of lipoproteins in blood serum", "setting": "[6]", "value": "no visible effect was identified"}]}, {"smiles": "COc1ccc(CCN(C)CCCC(C#N)(c2ccc(OC)c(OC)c2)C(C)C)cc1OC", "note": "(centres unmarked) [Verapamil]", "values": [{"measurement": "Inclusion of [3H] thymidine", "setting": "[7]; Verapamil 10^-4 M", "value": "20 ± 2 % of control"}, {"measurement": "Inclusion of [3H] thymidine", "setting": "[7]; Verapamil 10^-5 M", "value": "34 ± 2 % of control"}, {"measurement": "Inclusion of [3H] thymidine", "setting": "[7]; Verapamil 10^-6 M", "value": "50 ± 2 % of control"}, {"measurement": "Inclusion of [3H] thymidine", "setting": "[7]; Verapamil 10^-7 M", "value": "86 ± 7 % of control"}, {"measurement": "Synthesis of collagen", "setting": "[8]", "value": "74 ± 5 % of control"}, {"measurement": "Triglycerides", "setting": "[2]; Verapamil 5 x 10^-5 M, control 12.1 ± 1.7 µg/105", "value": "76 ± 2 % of control"}, {"measurement": "Free cholesterol", "setting": "[2]; Verapamil 5 x 10^-5 M, control 46.8 ± 5.3 µg/105", "value": "90 ± 8 % of control"}, {"measurement": "Phospholipids", "setting": "[2]; Verapamil 5 x 10^-5 M, control 71.4 ± 10.9 µg/105", "value": "61 ± 8 % of control"}, {"measurement": "Total cholesterol", "setting": "[2]; Verapamil 10^-5 M", "value": "61 ± 4 % of control"}, {"measurement": "Total cholesterol", "setting": "[2]; Verapamil 10^-6 M", "value": "82 ± 8 % of control"}, {"measurement": "Total cholesterol", "setting": "[2]; Verapamil 10^-7 M, control 57.4 ± 1.2 µg/105", "value": "104 ± 5 % of control"}, {"measurement": "Antiatherosclerotic properties of serum are preserved", "setting": "[9]; after single intake", "value": "at least 12 hours"}, {"measurement": "blood serum acquires antiatherosclerotic properties, starting from", "setting": "[9]; after single intake", "value": 2, "unit": "h"}, {"measurement": "Intracellular cholesterol content", "setting": "[9]; serum 1 hr after Verapamil 400 mg, control 221 ± 13 µg cholesterol per 1 mg cellular protein", "value": "97 ± 10 % of control"}, {"measurement": "Intracellular cholesterol content", "setting": "[9]; serum 2 hr after Verapamil 400 mg", "value": "84 ± 6 % of control"}, {"measurement": "Intracellular cholesterol content", "setting": "[9]; serum 4 hr after Verapamil 400 mg", "value": "77 ± 8 % of control"}, {"measurement": "Intracellular cholesterol content", "setting": "[9]; serum 8 hr after Verapamil 400 mg", "value": "85 ± 4 % of control"}, {"measurement": "Intracellular cholesterol content", "setting": "[9]; serum 12 hr after Verapamil 400 mg", "value": "90 ± 6 % of control"}, {"measurement": "Intracellular cholesterol content", "setting": "[9]; serum 18 hr after Verapamil 400 mg", "value": "104 ± 4 % of control"}]}, {"smiles": "CC(C)=CCC/C(C)=C/C=C/C(C)=C/C=C/C(C)=C/C=C/C=C(C)/C=C/C=C(C)/C=C/C=C(\\C)CCC=C(C)C", "note": "[lycopene]", "values": [{"measurement": "return of blood serum concentration to the initial level", "setting": "[10]", "value": 24, "unit": "h"}, {"measurement": "time of maximum concentration in blood serum", "setting": "[10]", "value": 8, "unit": "h"}]}]}
